Laboratory results: patent US12296053B2, “Nanomaterials comprising triols” (Beam Therapeutics Inc., priority 2022, dated 2025)

Legend:
[1] = Encapsulation efficiency of LNP preparations (Ribogreen assay; Qubit, unlysed and lysed LNPs); assay type: physicochemical; details: LNP preparation with the ionizable lipid, ABE mRNA:sgRNA 1:1, except 7-1, 7-2, 7-6, 7-10 (unlysed and lysed LNPs, Qubit)
Outline: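 LNPs of ionizable lipid, cholesterol, PEG2000-DMG and DSPC (47.5:40:2.5:10 mol%) were made by microfluidic mixing with base-editor mRNA plus sgRNA (1:1 mass) in 50 mM citrate, pH 4.0, at total lipid:NA molar ratio 6 to 12. Encapsulation was read by Ribogreen, or for lipids 7-1, 7-2, 7-6 and 7-10 by Qubit on unlysed versus lysed LNPs.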

ALAS1 target site = assay: Base editing in liver by LNP-delivered ABE mRNA and sgRNA, targeted deep sequencing; assay type: in vivo; details: LNP with the ionizable lipid, ABE mRNA + sgRNA targeting ALAS1 1:1; tail vein injection, Balb/c mice; 0.05 mg/kg; tissues four to six days post-dose
[2] = LNP hydrodynamic diameter and polydispersity index by dynamic light scattering (DLS); assay type: physicochemical; details: for Diameter (nm): hydrodynamic diameter of the LNP preparation with the ionizable lipid; for PDI: polydispersity index of the LNP preparation with the ionizable lipid
Outline: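 LNPs were mixed at a 3:1 aqueous:organic ratio, diluted in TBS and dialysed against TBS at 4° C. for 8 to 24 hours (20 kDa). Hydrodynamic diameter and PDI were then measured by high-throughput DLS after dilution in 1×PBS.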

Structure (SMILES)	Encapsulation Efficiency (%) [1]	% Editing in Liver (0.05 mpk) (ALAS1 target site)	Diameter (nm) [2]	PDI [2]
CC/C=C\CCCCOC(CCC(=O)OCC(COC(=O)CCCCCCOC(=O)C(CCCC)CCCCCC)COC(=O)CCC(CCCCCC)OC(=O)CCCN1CCCC1)OCCCC/C=C\CC (stereo not drawn) [Compound 7-49, 3-((4,4-bis(((Z)-oct-5-en-1-yl)oxy)butanoyl)oxy)-2-(((7-((2-butyloctanoyl)oxy)heptanoyl)oxy)methyl)propyl 4-((4-(pyrrolidin-1-yl)butanoyl)oxy)decanoate]	96.3%	6.6%	57 nm	0.06
CC/C=C\CCCCOC(CCC(=O)OCC(COC(=O)CCCCCCOC(=O)C(CCCC)CCCCCC)COC(=O)CCC(CCCCCCC)OC(=O)NCCN1CCCC1)OCCCC/C=C\CC (stereo not drawn) [Compound 7-50, 3-((4,4-bis(((Z)-oct-5-en-1-yl)oxy)butanoyl)oxy)-2-(((7-((2-butyloctanoyl)oxy)heptanoyl)oxy)methyl)propyl 4-(((2-(pyrrolidin-1-yl)ethyl)carbamoyl)oxy)undecanoate]	96.6%	4.0%	53.45 nm	0.09
CC/C=C\CCCCOC(CCC(=O)OCC(COC(=O)CCCCCCOC(=O)C(CCCC)CCCCCC)COC(=O)CCC(CCCCCCCC)OC(=O)NCCN1CCCC1)OCCCC/C=C\CC (stereo not drawn) [Compound 7-51, 3-((4,4-bis(((Z)-oct-5-en-1-yl)oxy)butanoyl)oxy)-2-(((7-((2-butyloctanoyl)oxy)heptanoyl)oxy)methyl)propyl 4-(((2-(pyrrolidin-1-yl)ethyl)carbamoyl)oxy)dodecanoate]	96.6%	1.0%	51.15 nm	0.08
